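Five concentrations, 48 hours, 96-well plates. Here, GI50 denotes the concentration required for 50% inhibition of growth. TGI: total growth inhibition.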
Assays:
Assay in all cases: NCI-60 cell line screen, 48 h
ACHN renal = system: ACHN renal
A498 renal = system: A498 renal
EKVX NSCLC = system: EKVX NSCLC
BT-549 breast = system: BT-549 breast
MCF7 breast = system: MCF7 breast
SF-539 CNS = system: SF-539 CNS
SK-MEL-5 melanoma = system: SK-MEL-5 melanoma
KM20L2 colon = system: KM20L2 colon
M19-MEL melanoma = system: M19-MEL melanoma
DLD-1 colon = system: DLD-1 colon
HS 578T breast = system: HS 578T breast
LOX IMVI melanoma = system: LOX IMVI melanoma

Row | SMILES | GI50 (ACHN renal) | TGI (ACHN renal) | GI50 (A498 renal) | TGI (A498 renal) | GI50 (EKVX NSCLC) | TGI (EKVX NSCLC) | GI50 (BT-549 breast) | TGI (BT-549 breast) | GI50 (MCF7 breast) | TGI (MCF7 breast) | GI50 (SF-539 CNS) | TGI (SF-539 CNS) | GI50 (SK-MEL-5 melanoma) | TGI (SK-MEL-5 melanoma) | TGI (KM20L2 colon) | TGI (M19-MEL melanoma) | TGI (DLD-1 colon) | TGI (HS 578T breast) | TGI (LOX IMVI melanoma) | GI50 (LOX IMVI melanoma)
1 | CC1(O)COCCCCOc2c(CN)cccc2NC(=O)c2nc(cnc2N)-c2ccc(cc2)S(=O)(=O)C(C)(C)C1 (stereo not drawn) | 0.042 µM | 2.06 µM | 0.0163 µM | 1.43 µM | 1.68 µM | 3.38 µM | 1.45 µM | 2.91 µM | < 0.01 µM | 1.89 µM | 0.03 µM | 1.67 µM | 1.25 µM | 2.56 µM | – | – | – | – | – | –
2 | Cc1c2cc[n+](C)cc2c(C)c2c1oc1ccccc12 | – | > 100 µM | – | > 69 µM | – | > 42.3 µM | – | 4.39 µM | – | 70.5 µM | – | 13 µM | – | 14.1 µM | > 64.1 µM | 8.99 µM | > 59.5 µM | 4.8 µM | 19.7 µM | –
3 | COc1ccc2c(c1)/C(=C\c1c(Cl)n(-c3ccccc3)c3ccccc13)C(=O)N2 | – | 45.1 µM | – | 32 µM | – | 57.5 µM | – | 51.3 µM | – | 29.5 µM | – | 41.6 µM | – | 21.3 µM | – | – | – | 5.28 µM | 92.7 µM | –
4 | O=C(NC(Cc1ccc(I)cc1)C(=O)O)c1ccc(Cl)cc1 (stereo not drawn) | – | – | – | > 100 µM | – | > 100 µM | – | – | – | > 100 µM | – | > 100 µM | – | > 100 µM | > 100 µM | > 100 µM | > 100 µM | – | > 100 µM | –
5 | CO/N=C(\C)c1cccc(Nc2nc3ccccc3c3occc23)c1 | – | 27.9 µM | – | 17.3 µM | – | 26.8 µM | – | 26.8 µM | – | 36.8 µM | – | 26.9 µM | – | 28.7 µM | – | – | – | 27.2 µM | 31.6 µM | –
6 | CC1C(=O)C(C)C(c2ccco2)N(N=O)C1c1ccco1 (stereo not drawn) | – | – | – | > 100 µM | – | > 100 µM | – | – | – | > 100 µM | – | > 100 µM | – | > 100 µM | > 100 µM | > 100 µM | > 100 µM | – | > 100 µM | –
7 | CSc1ccc(/C=C2\N=C(c3ccccc3)N(/N=C3\C(=O)Nc4ccccc43)C2=O)cc1 | – | > 100 µM | – | > 100 µM | – | > 100 µM | – | > 100 µM | – | > 100 µM | – | > 100 µM | – | > 100 µM | – | – | – | > 100 µM | > 100 µM | –
8 | COC(=O)c1ccccc1C1=C([N+](=O)[O-])C(c2cccc(Br)c2)C(C#N)=C(N)O1 (stereo not drawn) | – | 43.4 µM | – | – | – | 97.7 µM | – | – | – | – | – | > 100 µM | – | > 100 µM | – | – | – | 56.9 µM | 38.1 µM | –
9 | CCO[C@]12CCC[C@H]1[C@@H]1C(=O)c3ccccc3C(=O)C1=C(C)O2 | – | > 100 µM | – | > 100 µM | – | > 100 µM | – | – | – | 35.8 µM | – | > 100 µM | – | > 100 µM | – | – | – | > 100 µM | 44.7 µM | –
10 | O=C1OC2(OC2c2ccc(Cl)cc2)c2ccccc21 (stereo not drawn) | – | > 100 µM | – | – | – | > 100 µM | – | – | – | – | – | > 100 µM | – | – | > 100 µM | > 100 µM | > 100 µM | – | 34 µM | –
11 | COc1cc([N+](=O)[O-])ccc1NC(=O)c1cccc([N+](=O)[O-])c1O | – | 62 µM | – | 51.7 µM | – | 78.8 µM | – | – | – | – | – | 75.2 µM | – | 31 µM | > 100 µM | > 100 µM | > 100 µM | – | > 100 µM | –
12 | CCSc1nc(-c2cccs2)nc2ccc(I)cc12 | – | > 100 µM | – | – | – | > 100 µM | – | > 100 µM | – | > 100 µM | – | > 100 µM | – | > 100 µM | – | – | – | – | > 100 µM | –
13 | CCCCCCCN(CCCCCCC)CC(O)c1cc2ccccc2c2cc(Br)ccc12 (stereo not drawn) | – | > 100 µM | – | > 100 µM | – | > 100 µM | – | – | – | 48 µM | – | > 100 µM | – | – | – | – | – | – | > 100 µM | –
14 | CCc1ccc2c(c1)C(=O)c1c-2n(CCCN)c(=O)c2cc([N+](=O)[O-])ccc12 | 1.51 µM | 2.84 µM | – | – | 1.67 µM | 3.11 µM | 1.68 µM | 3.29 µM | 0.362 µM | 1.6 µM | 1.6 µM | 3.01 µM | 1.6 µM | 3.12 µM | – | – | – | – | 2.62 µM | 1.19 µM
15 | Oc1ccc(-c2nc3cc(F)ccc3s2)cc1 | – | 40.7 µM | – | – | – | 38 µM | – | 60.6 µM | – | 28.5 µM | – | – | – | 41.6 µM | – | – | – | – | 33.3 µM | –
16 | c1ccc([P+](c2ccccc2)(c2ccccc2)c2ccc(-c3ccc([P+](c4ccccc4)(c4ccccc4)c4ccccc4)cc3)cc2)cc1 | – | 73.3 µM | – | 10.3 µM | – | > 100 µM | – | > 100 µM | – | > 100 µM | – | > 100 µM | – | 3.32 µM | – | – | – | > 100 µM | 51.9 µM | –
